According to patent publication US20250186437A1, “CARBOLINE COMPOUNDS AND USE THEREOF” (PTC Therapeutics, Inc., priority 2021, published 2025):

system: MOLM-13 cells; assay: MOLM-13 Cell Proliferation Assay (indicator of DHODH inhibition); format: cell-based; details: Homo sapiens, 72 Hours of culture, CellTiter-Glo, no uridine
Procedure, shortened: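 Proliferation readout via CellTiter-Glo luminescence after 72 h compound treatment (37 °C, 5% CO2, 0.5% DMSO) of MOLM-13 cells seeded at 10^4 per well in RPMI 1640/10% FBS, used as a DHODH-inhibition indicator since these cells rely on de novo pyrimidine synthesis.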

| Structure (SMILES) | IC50 |
| --- | --- |
| Cc1ccc(C2c3[nH]c4ccc(Cl)cc4c3CCN2c2nccc(C(F)(F)F)n2)c(O)c1 (stereo not drawn) [Compound 257, 2-{6-chloro-2-[4-(trifluoromethyl)pyrimidin-2-yl]-2,3,4,9-tetrahydro-1H-pyrido[3,4-b]indol-1-yl}-5-methylphenol] | 1.3 nM |
| Fc1ccc(C2c3[nH]c4ccc(F)c(F)c4c3CCN2c2ncc(Cl)cn2)cc1 (stereo not drawn) [Compound 85, 2-(5-chloropyrimidin-2-yl)-5,6-difluoro-1-(4-fluorophenyl)-2,3,4,9-tetrahydro-1H-pyrido[3,4-b]indole] | 162 nM |
| CN1CCN(c2ncc([C@H]3c4[nH]c5ccc(Cl)cc5c4CCN3c3nccc(C(F)(F)F)n3)cn2)CC1 [Compound 484, (1S)-6-chloro-1-[2-(4-methylpiperazin-1-yl)pyrimidin-5-yl]-2-[4-(trifluoromethyl)pyrimidin-2-yl]-2,3,4,9-tetrahydro-1H-pyrido[3,4-b]indole] | 2.6 nM |
| Cc1cc(C)nc(N2CCc3c([nH]c4cc(F)c(Cl)cc34)C2c2ccc(C)c(F)c2F)n1 (stereo not drawn) [Compound 132, 6-chloro-1-(2,3-difluoro-4-methylphenyl)-2-(4,6-dimethylpyrimidin-2-yl)-7-fluoro-2,3,4,9-tetrahydro-1H-pyrido[3,4-b]indole] | 2.1 nM |
| Fc1ccc(C2c3[nH]c4ccc(F)c(F)c4c3CCN2c2ncc(F)cn2)cc1 (stereo not drawn) [Compound 83, 5,6-difluoro-1-(4-fluorophenyl)-2-(5-fluoropyrimidin-2-yl)-2,3,4,9-tetrahydro-1H-pyrido[3,4-b]indole] | 259 nM |
| Cc1ccnc(N2CCc3c([nH]c4cc(F)c(Cl)cc34)C2c2cccc(F)c2F)n1 (stereo not drawn) [Compound 63, 6-chloro-1-(2,3-difluorophenyl)-7-fluoro-2-(4-methylpyrimidin-2-yl)-2,3,4,9-tetrahydro-1H-pyrido[3,4-b]indole] | 13.2 nM |
| OCCCc1ccc(C2c3[nH]c4cc(F)c(Cl)cc4c3CCN2c2nccc(C(F)(F)F)n2)cc1 (stereo not drawn) [Compound 156, 3-(4-{6-chloro-7-fluoro-2-[4-(trifluoromethyl)pyrimidin-2-yl]-2,3,4,9-tetrahydro-1H-pyrido[3,4-b]indol-1-yl}phenyl)propan-1-ol] | 4 nM |
| Nc1ncc(C2c3[nH]c4ccc(Cl)c(F)c4c3CCN2c2nccc(C(F)(F)F)n2)cn1 (stereo not drawn) [Compound 225, 5-{6-chloro-5-fluoro-2-[4-(trifluoromethyl)pyrimidin-2-yl]-2,3,4,9-tetrahydro-1H-pyrido[3,4-b]indol-1-yl}pyrimidin-2-amine] | 18.3 nM |

Further compounds by falling IC50, results first:

| IC50 | Structure (SMILES) |
| --- | --- |
| 86.1 nM | Oc1cc2[nH]c3c(c2cc1Cl)CCN(c1nccc(C(F)(F)F)n1)C3c1ccc(Cl)cc1 (stereo not drawn) [Compound 250, 6-chloro-1-(4-chlorophenyl)-2-[4-(trifluoromethyl)pyrimidin-2-yl]-2,3,4,9-tetrahydro-1H-pyrido[3,4-b]indol-7-ol] |
| 3.2 nM | Cc1cc(C)nc(N2CCc3c([nH]c4ccc(Cl)c(F)c34)C2c2ccc(/C=C/CCO)cc2)n1 (stereo not drawn) [Compound 242, (3E)-4-{4-[6-chloro-2-(4,6-dimethylpyrimidin-2-yl)-5-fluoro-2,3,4,9-tetrahydro-1H-pyrido[3,4-b]indol-1-yl]phenyl}but-3-en-1-ol] |
| 0.7 nM | COc1ncc([C@H]2c3[nH]c4ccc(Cl)cc4c3CCN2c2nc(C(F)(F)F)nc(C(F)(F)F)n2)cn1 [Compound 522, (1S)-2-[4,6-bis(trifluoromethyl)-1,3,5-triazin-2-yl]-6-chloro-1-(2-methoxypyrimidin-5-yl)-2,3,4,9-tetrahydro-1H-pyrido[3,4-b]indole] |
| 0.6 nM | FC(F)c1nc(N2CCc3c([nH]c4ccc(Cl)cc34)[C@@H]2c2cnc(N3CCOCC3)nc2)nc(C(F)(F)F)n1 [Compound 507, (1S)-6-chloro-2-[4-(difluoromethyl)-6-(trifluoromethyl)-1,3,5-triazin-2-yl]-1-[2-(morpholin-4-yl)pyrimidin-5-yl]-2,3,4,9-tetrahydro-1H-pyrido[3,4-b]indole] |
